Common to all, as to settings: Compound Concentration 10.0 uM, Hit No
Assay [1] deals with T1, Single-strand selective monofunctional uracil DNA glycosylase (Homo sapiens) (UniProt Q53HV7).
T1 sequence (whole entry): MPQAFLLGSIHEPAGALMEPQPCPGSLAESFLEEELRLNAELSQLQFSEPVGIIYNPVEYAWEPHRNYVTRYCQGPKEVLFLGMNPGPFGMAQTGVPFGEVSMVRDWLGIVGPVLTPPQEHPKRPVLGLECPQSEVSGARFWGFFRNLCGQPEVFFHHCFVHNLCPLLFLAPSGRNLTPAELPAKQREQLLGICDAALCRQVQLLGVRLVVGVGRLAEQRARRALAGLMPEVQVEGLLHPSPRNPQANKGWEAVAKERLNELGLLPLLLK
Description: Inhibition of SMUG1 by quantifying inhibition of SMUG1-mediated cleavage and dissociation of quenched duplex DNA oligonucleotides, measured as fluorescence at 594 nm. To generate a functional strand incision and increase turn-over this assay is coupled to APE1.

In assay [2] the target is T2, Endonuclease 8-like 2 (Homo sapiens) (UniProt Q969S2).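 Further: fluorescence at 594 nm reports NEIL2 cutting and release of a quenched double-stranded DNA oligo substrate, reduced signal read as inhibition.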
T2 sequence (whole entry): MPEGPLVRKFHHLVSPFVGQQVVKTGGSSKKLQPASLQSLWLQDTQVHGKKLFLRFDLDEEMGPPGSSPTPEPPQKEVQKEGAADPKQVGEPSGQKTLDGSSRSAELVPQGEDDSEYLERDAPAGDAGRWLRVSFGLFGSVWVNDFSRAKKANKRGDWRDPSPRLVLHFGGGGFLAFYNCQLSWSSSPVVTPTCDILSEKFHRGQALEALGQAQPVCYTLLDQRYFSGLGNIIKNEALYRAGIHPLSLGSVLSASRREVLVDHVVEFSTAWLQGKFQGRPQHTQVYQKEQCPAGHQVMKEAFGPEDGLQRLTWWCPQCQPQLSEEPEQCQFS
Description: Inhibition of NEIL2 by quantifying inhibition of NEIL2-mediated cleavage and dissociation of quenched duplex DNA oligonucleotides, measured as fluorescence at 594 nm.

The target of assay [3] is Endonuclease 8-like 1 (Homo sapiens) (UniProt Q96FI4).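 Further: fluorescence at 594 nm from quenched duplex DNA oligonucleotides released by NEIL1 cleavage and strand separation, reported as reduction of this enzyme activity.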
Description: Inhibition of NEIL1 by quantifying inhibition of NEIL1-mediated cleavage and dissociation of quenched duplex DNA oligonucleotides, measured as fluorescence at 594 nm.
For assay [4], the target named is T3, Endonuclease III-like protein 1 (Homo sapiens) (UniProt P78549).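 Further: enzyme assay tracking NTHL1 cutting and release of a quenched double-stranded DNA oligo substrate, read as fluorescence at 594 nm.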
T3 sequence (whole entry): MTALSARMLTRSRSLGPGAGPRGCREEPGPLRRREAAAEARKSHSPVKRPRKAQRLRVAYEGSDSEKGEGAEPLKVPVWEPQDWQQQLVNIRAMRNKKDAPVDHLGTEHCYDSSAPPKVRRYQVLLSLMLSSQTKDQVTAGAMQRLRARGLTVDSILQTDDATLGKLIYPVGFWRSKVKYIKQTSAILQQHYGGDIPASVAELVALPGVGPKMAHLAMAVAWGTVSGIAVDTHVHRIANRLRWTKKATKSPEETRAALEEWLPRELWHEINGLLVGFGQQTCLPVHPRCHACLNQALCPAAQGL
Description: Inhibition of NTHL1 by quantifying inhibition of NTHL1-mediated cleavage and dissociation of quenched duplex DNA oligonucleotides, measured as fluorescence at 594 nm.

Assay [5] deals with Uracil-DNA glycosylase (Homo sapiens) (UniProt P13051).
Description: Inhibition of UNG by quantifying inhibition of UNG-mediated cleavage and dissociation of quenched duplex DNA oligonucleotides, measured as fluorescence at 594 nm. To generate a functional strand incision and increase turn-over this assay is coupled to APE1.
Assay [6] has as its target N-glycosylase/DNA lyase (Homo sapiens) (UniProt O15527).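 Further: OGG1 cleavage of a quenched duplex DNA oligonucleotide, coupled to APE1 for strand incision, read as fluorescence at 594 nm.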
Description: Inhibition of OGG1 by quantifying inhibition of OGG1-mediated cleavage and dissociation of quenched duplex DNA oligonucleotides, measured as fluorescence at 594 nm. To generate a functional strand incision and increase turn-over this assay is coupled to APE1.
For assay [7], the target named is G/T mismatch-specific thymine DNA glycosylase (Homo sapiens) (UniProt Q13569).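 Further: human TDG cleavage of quenched duplex DNA oligonucleotides coupled to APE1, strand release read as fluorescence at 594 nm, inhibition of TDG activity.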
Description: Inhibition of TDG by quantifying inhibition of TDG-mediated cleavage and dissociation of quenched duplex DNA oligonucleotides, measured as fluorescence at 594 nm. To generate a functional strand incision and increase turn-over this assay is coupled to APE1.

SMILES strings stand for the structures.

Endonuclease 8-like 1 (Homo sapiens), sequence (Q96FI4 whole entry): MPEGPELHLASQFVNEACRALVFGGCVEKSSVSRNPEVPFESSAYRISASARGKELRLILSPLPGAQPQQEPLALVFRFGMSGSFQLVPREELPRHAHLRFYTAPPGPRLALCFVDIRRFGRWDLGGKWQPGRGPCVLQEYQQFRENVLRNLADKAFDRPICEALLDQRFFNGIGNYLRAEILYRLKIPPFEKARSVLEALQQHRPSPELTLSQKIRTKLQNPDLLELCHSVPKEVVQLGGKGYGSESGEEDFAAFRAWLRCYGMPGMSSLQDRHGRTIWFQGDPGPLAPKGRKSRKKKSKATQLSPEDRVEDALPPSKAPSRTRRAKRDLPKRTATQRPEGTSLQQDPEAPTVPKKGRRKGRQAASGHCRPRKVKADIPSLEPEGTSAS
N-glycosylase/DNA lyase (Homo sapiens), sequence (O15527 whole entry): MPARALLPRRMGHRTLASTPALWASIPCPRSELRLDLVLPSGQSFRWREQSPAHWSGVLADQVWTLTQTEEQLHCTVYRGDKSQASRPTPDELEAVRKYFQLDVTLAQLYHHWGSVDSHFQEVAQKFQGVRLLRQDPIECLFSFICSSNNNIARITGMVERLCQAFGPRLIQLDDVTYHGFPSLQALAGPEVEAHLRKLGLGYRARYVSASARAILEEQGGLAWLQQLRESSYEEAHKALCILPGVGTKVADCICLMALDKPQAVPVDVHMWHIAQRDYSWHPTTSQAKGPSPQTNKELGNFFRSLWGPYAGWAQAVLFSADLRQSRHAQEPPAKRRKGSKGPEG
Uracil-DNA glycosylase (Homo sapiens), sequence (P13051 whole entry): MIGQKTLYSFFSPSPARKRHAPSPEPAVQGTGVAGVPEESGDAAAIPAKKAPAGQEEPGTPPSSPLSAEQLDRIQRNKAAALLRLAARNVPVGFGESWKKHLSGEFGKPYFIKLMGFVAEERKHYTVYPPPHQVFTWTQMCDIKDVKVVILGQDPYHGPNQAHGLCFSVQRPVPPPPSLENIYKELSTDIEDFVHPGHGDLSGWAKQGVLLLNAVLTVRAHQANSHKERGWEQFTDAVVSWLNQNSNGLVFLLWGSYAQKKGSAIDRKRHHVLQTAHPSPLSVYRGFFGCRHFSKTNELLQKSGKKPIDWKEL
G/T mismatch-specific thymine DNA glycosylase (Homo sapiens), sequence (Q13569 whole entry): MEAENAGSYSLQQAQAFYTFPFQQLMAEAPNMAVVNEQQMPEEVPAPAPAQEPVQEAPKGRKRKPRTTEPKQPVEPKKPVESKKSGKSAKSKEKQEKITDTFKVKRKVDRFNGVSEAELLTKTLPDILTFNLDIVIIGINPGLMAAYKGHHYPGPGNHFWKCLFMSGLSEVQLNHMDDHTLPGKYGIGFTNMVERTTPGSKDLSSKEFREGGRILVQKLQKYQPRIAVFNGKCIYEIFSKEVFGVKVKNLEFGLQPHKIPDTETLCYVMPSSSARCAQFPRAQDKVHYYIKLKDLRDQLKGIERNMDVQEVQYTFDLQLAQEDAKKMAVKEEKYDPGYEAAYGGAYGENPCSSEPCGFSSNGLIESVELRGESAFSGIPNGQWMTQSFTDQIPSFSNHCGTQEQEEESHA

In the case of `NCCc1cn(S(=O)(=O)c2c(Cl)nc3sccn23)c2ccccc12`, the inhibition is 3.77% in assay [1]; -1.62% in assay [2]; 6.53% in assay [3]; -1.91% in assay [4]; -2.77% in assay [5]; 16.8% in assay [6].
Regarding `C[C@@H](NCCCc1cccc(C(F)(F)F)c1)c1cccc2ccccc12`, the inhibition in assay [1] was 8.59%; in assay [2], 13.5%; in assay [7] it was -8.6%; in assay [3], 1.28%; in assay [4] it was -5.41%; in assay [6], -4.37%.
Regarding `FC(F)c1nc2ccccc2n1-c1nc(N2CCOCC2)nc(N2CCOCC2)n1`, the inhibition in assay [1] is 27%; in assay [7] it was 32.9%; in assay [4] it was 7.06%; in assay [5], -3.48%; in assay [6], 3.08%.
Take `CCCCCCCCc1ccc(CCC(N)(CO)CO)cc1`: the inhibition in assay [1] is 1.32%; in assay [2], -1.98%; in assay [7], 26.4%; in assay [3], 4.69%; in assay [4], -6.87%; in assay [6] it was -9.6%.
For the molecule `O=C(Nc1ccc(Cl)cc1)Nc1cccc(-c2cccc(N3CCCC3)n2)c1`, the inhibition was -0.712% in assay [1]; -4.23% in assay [2]; 8.84% in assay [3]; -0.275% in assay [4]; -9.34% in assay [5]; -1.14% in assay [6].
With `Cc1cn2cc(CC(=O)N3CCC4(CC3)CN(Cc3ccc(-n5nccn5)cc3Cl)C4)nc2s1`, the inhibition in assay [1] was -0.227%; in assay [7] it was -1.26%; in assay [3] it was -6.88%; in assay [4], 6.32%; in assay [6], -2.88%.
In the case of `O=C(Nc1ccc(-n2nc(C(F)(F)F)cc2C(F)(F)F)cc1)c1ccncc1F`, the inhibition in assay [1] is -4.65%; in assay [2] it was -8.25%; in assay [3], 3.86%; in assay [4], -4.39%; in assay [5] it was -0.503%; in assay [6], -5.81%.
Take `CC(C)CCC[C@@H](C)[C@H]1CC[C@H]2[C@@H]3[C@H](O)C=C4C[C@@H](O)CC[C@]4(C)[C@H]3CC[C@]12C`: the inhibition in assay [1] is -3.67%; in assay [2], -6.22%; in assay [7] it was -0.558%; in assay [3], 8.25%; in assay [4] it was -1.74%; in assay [6] it was -2.82%.
As for `COCC(=O)NC/C=C/c1ccc2ncnc(Nc3ccc(Oc4ccc(C)nc4)c(C)c3)c2c1`, the inhibition is 21.7% in assay [1]; 11.2% in assay [7]; -8.05% in assay [3]; 1.48% in assay [4]; 9.27% in assay [5]; 5.64% in assay [6].
With `Cc1ccc(F)cc1C(=O)Nc1ccc(C(=O)N2Cc3cccn3Cc3ccccc32)c(Cl)c1`, the inhibition in assay [1] was -2.41%; in assay [2] it was -4.48%; in assay [7], -0.756%; in assay [3] it was -2.72%; in assay [4], 18.1%; in assay [6] it was -6.45%.
Take `Cc1c(C(=O)Nc2ccc(N3C[C@@H](C)O[C@@H](C)C3)nc2)cccc1-c1ccc(OC(F)(F)F)cc1`: the inhibition in assay [1] was -0.0333%; in assay [2], 7.5%; in assay [7], -4.8%; in assay [3], -5.39%; in assay [4], -3.21%; in assay [6] it was -6.4%.
Consider `c1cc(CN2CCCNCCNCCCNCC2)ccc1CN1CCCNCCNCCCNCC1`, for which the inhibition in assay [1] is 1.47%; in assay [7] it was 2.03%; in assay [4] it was 13.7%; in assay [6], -2.11%.
As for `O=C(N[C@H](Cc1ccc(Cl)cc1)C(=O)N1CCC(Cn2cncn2)(C2CCCCC2)CC1)[C@H]1Cc2ccccc2CN1`, the inhibition is 10.8% in assay [1]; 0.159% in assay [2]; 5.49% in assay [3]; -6.04% in assay [4]; -1.71% in assay [5]; 6.85% in assay [6].
On to `CCCn1c(=O)c2[nH]c(C3CCCC3)nc2n(CCC)c1=O`, for which the inhibition in assay [1] was -9.38%; in assay [2] it was 1.01%; in assay [7], 6.69%; in assay [3], -2.28%; in assay [4], -3.21%; in assay [6] it was -9.82%.
In the case of `NCCCNCCCCNCCC(=O)NCCCCCNC(=O)[C@H](CC(N)=O)NC(=O)Cc1ccc(O)cc1O`, the inhibition in assay [1] is -7.3%; in assay [2], -3.66%; in assay [3], 0.898%; in assay [4], -0.258%; in assay [5] it was -1.11%; in assay [6] it was 0.0747%.
Regarding `CC[C@@H]1CN(C(=O)NCC(F)(F)F)C[C@@H]1c1cnc2cnc3[nH]ccc3n12`, the inhibition in assay [1] was determined as 20.8%; in assay [7], 36.4%; in assay [3], 4.1%; in assay [4], 2.88%; in assay [5], 1.27%; in assay [6], 0.361%.
Turning to `CN1C(=O)[C@@H](NC(=O)c2cc3ccccc3[nH]2)N=C(c2ccccc2)c2ccccc21`, the inhibition in assay [1] is -0.954%; in assay [7] it was 4.69%; in assay [4], 22.4%; in assay [5], -5.09%; in assay [6] it was -4.56%.
Take `CCN1CCC[C@H]1CNC(=O)c1c(OC)ccc(Br)c1OC`: the inhibition was -6.28% in assay [1]; -5.97% in assay [2]; -0.58% in assay [7]; -9.25% in assay [3]; -4.67% in assay [4]; -3.96% in assay [6].
For `O=C(NCc1ccc(F)cc1)N1CCN2C(=O)OC(c3ccccc3)(c3ccccc3)C2C1` (centres undefined), the inhibition in assay [1] is 10.1%; in assay [2], 9.75%; in assay [7], 6.86%; in assay [3] it was -1.09%; in assay [4] it was -0.275%; in assay [6], 1.66%.
For `CC(C)(N)C(=O)N[C@H](COCc1ccccc1)C(=O)N1CCC2(CC1)CN(S(C)(=O)=O)c1ccccc12`, the inhibition in assay [1] was -6.91%; in assay [2], 7%; in assay [7] it was 6.18%; in assay [3], 7.36%; in assay [4] it was -1.74%; in assay [5], -9.48%.
On to `C=CCN1C[C@H](C)N([C@H](c2ccc(C(=O)N(CC)CC)cc2)c2cccc(O)c2)C[C@H]1C`, for which the inhibition was 10.6% in assay [1]; 6.25% in assay [2]; 4.87% in assay [7]; -6.58% in assay [3]; 1.92% in assay [4]; -6.71% in assay [6].
On to `CC(C)Oc1ccc(-c2nn([C@@H](C)c3oc4ccc(F)cc4c(=O)c3-c3cccc(F)c3)c3ncnc(N)c23)cc1F`, for which the inhibition in assay [1] was 23.6%; in assay [7] it was 80.6%; in assay [3] it was -4.09%; in assay [4], 8.46%; in assay [5], 6.08%; in assay [6], 8.77%.
Turning to `Cc1c(C(=O)Nc2cccc(C(F)(F)F)c2)cc(-c2ccccc2)n1CCCN1CCOCC1`, the inhibition is 6.03% in assay [1]; 0.00926% in assay [3]; -7.69% in assay [4]; -3.84% in assay [5]; -6.32% in assay [6].
`Cc1csc(NC(=O)c2cc(F)cc(Oc3cncnc3)c2)n1`: the inhibition in assay [1] was 3.26%; in assay [2], 3.51%; in assay [7], 5.04%; in assay [3], -4.5%; in assay [4], 4.86%; in assay [6] it was -8.23%.
Turning to `O=C1COc2nccc(-c3ccccc3F)c2CN1Cc1cc(C(F)(F)F)cc(C(F)(F)F)c1`, the inhibition in assay [1] was -3.96%; in assay [2], -2.98%; in assay [3], 2.76%; in assay [4], 2.66%; in assay [6], -4.66%.
On to `CN(c1ncccc1CNc1ccnc(-c2cc3cc(Cl)ccc3[nH]2)n1)S(C)(=O)=O`, for which the inhibition is 14.4% in assay [1]; 1.85% in assay [2]; 37.5% in assay [7]; 8.2% in assay [3]; -4.79% in assay [4]; 1.54% in assay [5].

What is called inhibition is the relative decrease from the control value, in per cent.
